Test results published in ChEMBL document CHEMBL4725491, “Staurosporine Analogs Via C-H Borylation” (ACS Med Chem Lett, 2020).

What was measured:
[1] = test system: MDA-MB-231; assay: Cytotoxicity against human MDA-MB-231 cells assessed as reduction in cell metabolic activity after 72 hrs by MTS assay; assay type: functional, cell-based; details: MDA-MB-231, 72 h
[2] = Cytotoxicity against human HMLE cells assessed as reduction in cell metabolic activity after 72 hrs by MTS assay; assay type: ADME, cell-based

| Structure (SMILES) | IC50 [1] [nM] | IC50 [2] [nM] |
| --- | --- | --- |
| CN[C@@H]1C[C@H]2O[C@@](C)([C@@H]1OC)n1c3ccccc3c3c4c(c5c6ccccc6n2c5c31)C(=O)NC4 [STAUROSPORINE] | 2.5 |  |
| CN[C@@H]1C[C@H]2O[C@@](C)([C@@H]1OC)n1c3cc(O)ccc3c3c4c(c5c6ccccc6n2c5c31)C(=O)NC4 | 3.4 | 58.7 |
| CN[C@@H]1C[C@H]2O[C@@](C)([C@@H]1OC)n1c3ccc(O)cc3c3c4c(c5c6ccccc6n2c5c31)C(=O)NC4 | 2 | 27.5 |
